The test concerns the target GLP-1 Receptor (Homo sapiens, UniProt P43220). The test is described as follows: GLP-1R agonist cAMP stimulation assay (HEK293/GLP1R/CRE-LUC cells, cAMP dynamic 2 Kit). Format: cell-based. The conditions noted are these: HEK293/CRE-Luc cell line stably expressing the GLP-1 Receptor, 30 min at 37° C. Put shortly: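 HEK293 cells stably expressing human GLP-1R with CRE-luciferase, 1000 cells/well in DPBS with 0.5 mM IBMX and 0.1% BSA, treated with compound in 1/2-log serial dilution for 30 min at 37 °C. cAMP then detected by HTRF (cAMP-d2 plus anti-cAMP cryptate), 1 h at room temperature in the dark.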
Sequence of GLP-1 Receptor (P43220 24-463, species assumed): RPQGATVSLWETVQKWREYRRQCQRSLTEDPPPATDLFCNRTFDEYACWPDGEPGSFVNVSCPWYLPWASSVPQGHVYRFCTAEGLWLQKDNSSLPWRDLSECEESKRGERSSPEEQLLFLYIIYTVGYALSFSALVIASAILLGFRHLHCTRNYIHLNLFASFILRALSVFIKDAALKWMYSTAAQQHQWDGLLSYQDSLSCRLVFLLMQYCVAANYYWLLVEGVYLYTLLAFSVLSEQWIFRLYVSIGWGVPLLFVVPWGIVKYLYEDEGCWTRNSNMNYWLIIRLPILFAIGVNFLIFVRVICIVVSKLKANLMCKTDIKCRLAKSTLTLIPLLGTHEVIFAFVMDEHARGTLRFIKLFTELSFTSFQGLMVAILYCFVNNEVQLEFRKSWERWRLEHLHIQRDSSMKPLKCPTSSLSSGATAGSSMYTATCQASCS
The term EC50 denotes the concentration needed to bring the measured effect to its halfway point. High values mean weaker potency, low ones greater potency. `FC(F)(F)c1nnc(-c2cc3nc(CN4CCC(c5cccc6c5OC[C@@H](c5ccc(Cl)cc5)O6)CC4)n(C[C@@H]4CCO4)c3cn2)[nH]1` [Compound 423a, 4-[(2R)-2-(4-chlorophenyl)-2,3-dihydro-1,4-benzodioxin-5-yl]-1-[(3-{[(2S)-oxetan-2-yl]methyl}-6-[5-(trifluoromethyl)-4H-1,2,4-triazol-3-yl]-3H-imidazo[4,5-c]pyridin-2-yl)methyl]piperidine] gave an EC50 of 0.13 nM. In other words, the sub-nanomolar range.
Under `O=C(Nc1ccc2c(c1)nc(CN1CCC(c3cccc(OCc4ccc(Cl)cc4F)n3)CC1)n2C[C@@H]1CCO1)C1CCCC1` [Compound 151a, N-{2-[(4-{6-[(4-chloro-2-fluorophenyl)methoxy]pyridin-2-yl}piperidin-1-yl)methyl]-1-{[(2S)-oxetan-2-yl]methyl}-1H-1,3-benzodiazol-5-yl}cyclopentanecarboxamide] stands 0.8 nM; under `O=C(Nc1ccc2c(c1)nc(CN1CCC(c3cccc(OCc4ccc(Cl)cc4F)n3)CC1)n2C[C@@H]1CCO1)C1CC1` [Compound 103a, (S)—N-(2-((4-(6-((4-chloro-2-fluorobenzyl)oxy)pyridin-2-yl)piperidin-1-yl)methyl)-1-(oxetan-2-ylmethyl)-1H-benzo[d]imidazol-5-yl)cyclopropanecarboxamide], 0.309 nM; under `CC1(c2ccc(Cl)cc2F)Oc2ccc(F)c(C3CCN(Cc4nc5cc(-c6nnc(C(F)(F)F)[nH]6)ncc5n4C[C@@H]4CCO4)CC3)c2O1` (stereo partly drawn) [Compound 458a, 4-[2-(4-chloro-2-fluorophenyl)-5-fluoro-2-methyl-2H-1,3-benzodioxol-4-yl]-1-[(3-{[(2S)-oxetan-2-yl]methyl}-6-[5-(trifluoromethyl)-4H-1,2,4-triazol-3-yl]-3H-imidazo[4,5-c]pyridin-2-yl)methyl]piperidine], 0.3 nM.
Under `C[C@]1(c2ccc(Cl)cn2)Oc2cccc(C3CCN(Cc4nc5cc(-c6nnc(C(F)(F)F)[nH]6)nnc5n4C[C@@H]4CCO4)CC3)c2O1` [Compound 462a, 5-chloro-2-[(2S)-2-methyl-4-{1-[(7-{[(2S)-oxetan-2-yl]methyl}-3-[5-(trifluoromethyl)-4H-1,2,4-triazol-3-yl]-7H-imidazo[4,5-c]pyridazin-6-yl)methyl]piperidin-4-yl}-2H-1,3-benzodioxol-2-yl]pyridine] stands 0.045 nM.
`CC1(c2ccccc2)Oc2cccc(C3CCN(Cc4nc5cc(-c6nnc(C(F)(F)F)[nH]6)ccc5n4C[C@@H]4CCO4)CC3)c2O1` (stereo partly drawn) [Compound 405a, 2-{[4-(2-methyl-2-phenyl-2H-1,3-benzodioxol-4-yl)piperidin-1-yl]methyl}-1-{[(2S)-oxetan-2-yl]methyl}-5-[5-(trifluoromethyl)-4H-1,2,4-triazol-3-yl]-1H-1,3-benzodiazole] returned a concentration for a half-maximal effect (EC50) of 0.53 nM. This EC50 lies about 12-fold higher than the previous one.
`Cc1nnc(-c2ccc3c(c2)nc(CN2CCC(c4cccc5c4O[C@@](C)(c4ccc(C(N)=O)cc4F)O5)CC2)n3C[C@@H]2CCO2)[nH]1` [Compound 410b, 3-fluoro-4-[(2S)-2-methyl-4-(1-{[5-(5-methyl-4H-1,2,4-triazol-3-yl)-1-{[(2S)-oxetan-2-yl]methyl}-1H-1,3-benzodiazol-2-yl]methyl}piperidin-4-yl)-2H-1,3-benzodioxol-2-yl]benzamide]: a half-maximal response (EC50) required 0.082 nM.
Under `CC1(c2ccc(Cl)cn2)Oc2cccc(C3CCN(Cc4nc5cc(-c6nnc(C(F)(F)F)[nH]6)ccc5n4CC4(C#N)CC4)CC3)c2O1` (stereo not drawn) [Compound 415, 1-{[2-({4-[2-(5-chloropyridin-2-yl)-2-methyl-2H-1,3-benzodioxol-4-yl]piperidin-1-yl}methyl)-5-[5-(trifluoromethyl)-4H-1,2,4-triazol-3-yl]-1H-1,3-benzodiazol-1-yl]methyl}cyclopropane-1-carbonitrile] stands 0.14 nM.
For `Cc1cc(C(=O)Nc2ccc3c(c2)nc(CN2CCC(c4cccc(OCc5ccc(Cl)cc5F)n4)CC2)n3C[C@@H]2CCO2)nn1C` [Compound 187a, N-{2-[(4-{6-[(4-chloro-2-fluorophenyl)methoxy]pyridin-2-yl}piperidin-1-yl)methyl]-1-{[(2S)-oxetan-2-yl]methyl}-1H-1,3-benzodiazol-5-yl}-1,5-dimethyl-1H-pyrazole-3-carboxamide], it took 0.88 nM to reach a half-maximal effect (EC50).

For the origin of these results see patent publication US20230391760A1, “HETEROCYCLIC GLP-1 AGONISTS” (Gasherbrum Bio, Inc., priority 2020, published 2023).
